Experimental findings from patent publication US9796700B2 (Celgene CAR LLC, priority 2013, dated 2017) are described below.

Sequence of Erk1 (P27361 whole entry, looked up): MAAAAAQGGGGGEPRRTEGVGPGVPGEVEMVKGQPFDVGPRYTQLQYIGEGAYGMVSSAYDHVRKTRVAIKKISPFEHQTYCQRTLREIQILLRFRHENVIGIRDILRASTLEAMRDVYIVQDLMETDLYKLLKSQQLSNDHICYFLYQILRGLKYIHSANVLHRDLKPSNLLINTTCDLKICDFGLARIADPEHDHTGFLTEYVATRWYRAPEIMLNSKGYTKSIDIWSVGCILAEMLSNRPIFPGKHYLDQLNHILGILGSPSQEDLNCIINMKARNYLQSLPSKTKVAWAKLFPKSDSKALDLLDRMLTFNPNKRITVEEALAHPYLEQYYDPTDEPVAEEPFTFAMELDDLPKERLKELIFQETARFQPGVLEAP

The target in this assay is Erk1 (Homo sapiens (Human), UniProt P27361). Kind of assay: Protein Mass Modification Assay (intact protein MALDI). Format: binding. In short, it runs like this:
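Percent covalent modification comes from the intact-protein MALDI centroid mass shift, treated versus control, divided by compound MW. Before analysis, human Erk1 was exposed to compound at 10-fold excess over protein for 60 min at room temperature.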
Regarding `C=CC(=O)Nc1ccccc1Nc1nc(Nc2ccc(F)cc2C)ncc1Cl` [Compound I-209, N-(2-((5-chloro-2-((4-fluoro-2-methylphenyl)amino)pyrimidin-4-yl)amino)phenyl)acrylamide], the “ERK1 Mass Mod (%)” value is on record as “F (provided a mass modification of 31-69%)”.
`C=CC(=O)Nc1cc(OC)ccc1Nc1nc(Nc2ccc(N3CCCN(C(=O)OC(C)(C)C)CC3)cc2C#N)ncc1Cl` [Compound I-156, tert-butyl 4-(4-((4-((2-acrylamido-4-methoxyphenyl)amino)-5-chloropyrimidin-2-yl)amino)-3-cyanophenyl)-1,4-diazepane-1-carboxylate]: the “ERK1 Mass Mod (%)” value was “E (provided a mass modification of ≧70%)”.
The result for `C=CC(=O)Nc1cc(C)ccc1Nc1nc(Nc2cc(OCC)ncc2C)ncc1C(F)(F)F` [Compound I-358, N-(2-((2-((2-ethoxy-5-methylpyridin-4-yl)amino)-5-(trifluoromethyl)pyrimidin-4-yl)amino)-5-methylphenyl)acrylamide] reads “E (provided a mass modification of ≧70%)”; that for `C=CC(=O)N[C@@H]1CCCC[C@H]1Nc1nc(Nc2cc(C(N)=O)ccc2C)ncc1Cl` (racemic) [Compound I-226, Rac-trans-3-((4-((2-acrylamidocyclohexyl)amino)-5-chloropyrimidin-2-yl)amino)-4-methylbenzamide], “E (provided a mass modification of ≧70%)”.
On to `C=CC(=O)Nc1ccccc1Nc1nc(Nc2ccc3c(c2OC)CCCC(=O)N3CCCN)ncc1Cl` [Compound I-148, N-(2-((2-((1-(3-aminopropyl)-6-methoxy-2-oxo-2,3,4,5-tetrahydro-1H-benzo[b]azepin-7-yl)amino)-5-chloropyrimidin-4-yl)amino)phenyl)acrylamide], for which the “ERK1 Mass Mod (%)” value was “E (provided a mass modification of ≧70%)”.
For the compound `C=CC(=O)Nc1cc(F)ccc1Nc1nc(Nc2ccc(F)cc2OC)ncc1Cl` [Compound I-213, N-(2-((5-chloro-2-((4-fluoro-2-methoxyphenyl)amino)pyrimidin-4-yl)amino)-5-fluorophenyl)acrylamide], the “ERK1 Mass Mod (%)” value was “E (provided a mass modification of ≧70%)”.
On to `C=CC(=O)Nc1ccccc1Nc1nc(Nc2cc(C(=O)NOCCO)ccc2C#N)ncc1C(F)(F)F` [Compound I-75, 3-((4-((2-Acrylamidophenyl)amino)-5-(trifluoromethyl)pyrimidin-2-yl)amino)-4-cyano-N-(2-hydroxyethoxy)benzamide], for which the “ERK1 Mass Mod (%)” value was “E (provided a mass modification of ≧70%)”.
For the compound `C=CC(=O)Nc1ccccc1Nc1nc(Nc2cc(NC(=O)CCCC(=O)NCCCOCCOCCOCCCNC(=O)CCCC[C@@H]3SC[C@@H]4NC(=O)N[C@@H]43)cc(C(N)=O)c2)ncc1Cl` [Compound I-304, N^1-(3-((4-((2-acrylamidophenyl)amino)-5-chloropyrimidin-2-yl)amino)-5-carbamoylphenyl)-N-(15-oxo-19-((3aS,4S,6aR)-2-oxohexahydro-1H-thieno[3,4-d]imidazol-4-yl)-4,7,10-trioxa-14-azanonadecyl)glutaramide], the “ERK1 Mass Mod (%)” value is listed as “G (proived a mass modification ≦30%)”.
The result for `C=CC(=O)Nc1ccccc1Nc1nc(N[C@H]2CCCN(C(=O)C=O)C2)ncc1C(F)(F)F` [Compound I-52, (S)—N-(2-((2-((1-(2-Oxoacetyl)piperidin-3-yl)amino)-5-(trifluoromethyl)pyrimidin-4-yl)amino)phenyl)acrylamide] reads “E (provided a mass modification of ≧70%)”.
Next, `C=CC(=O)Nc1cc(C)ccc1Nc1nc(Nc2cc(OC)ccc2C)ncc1C(F)(F)F` [Compound I-341, N-(2-((2-((5-methoxy-2-methylphenyl)amino)-5-(trifluoromethyl)pyrimidin-4-yl)amino)-5-methylphenyl)acrylamide]: “E (provided a mass modification of ≧70%)”.
With `C=CC(=O)Nc1ccccc1Oc1nc(NC(C)(C)C)ncc1C(N)=O` [Compound I-267, 4-(2-acrylamidophenoxy)-2-(tert-butylamino)pyrimidine-5-carboxamide], the “ERK1 Mass Mod (%)” value is “E (provided a mass modification of ≧70%)”.
Regarding `C=CC(=O)Nc1ccccc1Nc1nc(N[C@H]2CC[C@H](C(N)=O)CC2)ncc1Cl` [Compound I-129, trans-4-((4-((2-acrylamidophenyl)amino)-5-chloropyrimidin-2-yl)amino)-cyclohexanecarboxamide], the “ERK1 Mass Mod (%)” value is recorded as “E (provided a mass modification of ≧70%)”.
The result for `C=CC(=O)Nc1ccccc1Nc1nc(N[C@H]2CCCN(C(=O)C(C)=O)C2)ncc1C(F)(F)F` [Compound I-49, (S)—N-(2-((2-((1-(2-Oxopropanoyl)piperidin-3-yl)amino)-5-(trifluoromethyl)pyrimidin-4-yl)amino)phenyl)acrylamide] reads “E (provided a mass modification of ≧70%)”; that for `C=CC(=O)Nc1ccccc1Nc1nc(N[C@H]2CCN(S(C)(=O)=O)C2)ncc1C(F)(F)F` [Compound I-58, (S)—N-(2-((2-((1-(Methylsulfonyl)pyrrolidin-3-yl)amino)-5-(trifluoromethyl)pyrimidin-4-yl)amino)phenyl)acrylamide], “E (provided a mass modification of ≧70%)”.
The result for `C=CC(=O)Nc1cc(OC)ccc1Nc1nc(Nc2ccc(N(CC)C(C)=O)cc2C(F)(F)F)ncc1Cl` [Compound I-176, N-(2-((5-chloro-2-((4-(N-ethylacetamido)-2-(trifluoromethyl)phenyl)amino)pyrimidin-4-yl)amino)-5-methoxyphenyl)acrylamide] reads “E (provided a mass modification of ≧70%)”; that for `C=CC(=O)Nc1ccccc1Nc1nc(Nc2cc(Cl)nc(OC)c2)ncc1Cl` [Compound I-246, N-(2-((5-chloro-2-((2-chloro-6-methoxypyridin-4-yl)amino)pyrimidin-4-yl)amino)phenyl)acrylamide], “E (provided a mass modification of ≧70%)”.
As to `C=CC(=O)Nc1cc(OC)ccc1Nc1nc(Nc2cc(Cl)nc(OC)c2)ncc1Cl` [Compound I-245, N-(2-((5-chloro-2-((2-chloro-6-methoxypyridin-4-yl)amino)pyrimidin-4-yl)amino)-5-methoxyphenyl)acrylamide], the “ERK1 Mass Mod (%)” value was “F (provided a mass modification of 31-69%)”.
Take `C=CC(=O)N[C@@H]1CCCC[C@H]1Nc1nc(Nc2cc(C(N)=O)ccc2C)ncc1C(N)=O` (racemic) [Compound I-255, Rac-trans-4-((2-acrylamidocyclohexyl)amino)-2-((5-carbamoyl-2-methylphenyl)amino)pyrimidine-5-carboxamide]: the “ERK1 Mass Mod (%)” value is given as “F (provided a mass modification of 31-69%)”.
Turning to `C=CC(=O)Nc1ccccc1Nc1nc(N[C@@H]2CCCN(C(C)=O)C2)ncc1Cl` [Compound I-128, (R)—N-(2-((2-((1-acetylpiperidin-3-yl)amino)-5-chloropyrimidin-4-yl)amino)phenyl) acrylamide], the “ERK1 Mass Mod (%)” value is “E (provided a mass modification of ≧70%)”.
With `C=CC(=O)Nc1cc(F)ccc1Nc1nc(Nc2cc(C(N)=O)ccc2C#N)ncc1Cl` [Compound I-207, 3-(4-(2-acrylamido-4-fluorophenylamino)-5-chloropyrimidin-2-ylamino)-4-cyanobenzamide], the “ERK1 Mass Mod (%)” value is recorded as “E (provided a mass modification of ≧70%)”.
With `C=CC(=O)Nc1ccccc1Nc1nc(Nc2ccc(N3CCOCC3)cc2OC)ncc1C(F)(F)F` [Compound I-65, N-(2-((2-((2-Methoxy-4-morpholinophenyl)amino)-5-(trifluoromethyl)pyrimidin-4-yl)amino)phenyl)acrylamide], the “ERK1 Mass Mod (%)” value was “E (provided a mass modification of ≧70%)”.
The result for `C=CC(=O)Nc1ccc(C)cc1Nc1nc(NC2CCC(=O)CC2)ncc1C(F)(F)F` [Compound I-39, N-(4-Methyl-2-((2-((4-oxocyclohexyl)amino)-5-(trifluoromethyl)pyrimidin-4-yl)amino)phenyl)acrylamide] reads “E (provided a mass modification of ≧70%)”; that for `C=CC(=O)Nc1cc(C)ccc1Nc1nc(Nc2cc(C(=O)NCCO)c(F)cc2C)ncc1Cl` [Compound I-234, 5-((4-((2-acrylamido-4-methylphenyl)amino)-5-chloropyrimidin-2-yl)amino)-2-fluoro-N-(2-hydroxyethyl)-4-methylbenzamide], “F (provided a mass modification of 31-69%)”.
Consider `C=CC(=O)Nc1cc(C)ccc1Nc1nc(Nc2cc(OC)ncc2Cl)ncc1C(F)(F)F` [Compound I-351, N-(2-((2-((5-chloro-2-methoxypyridin-4-yl)amino)-5-(trifluoromethyl)pyrimidin-4-yl)amino)-5-methylphenyl)acrylamide], for which the “ERK1 Mass Mod (%)” value is “F (provided a mass modification of 31-69%)”.
As to `C=C(C)S(=O)(=O)Nc1ccccc1Nc1nc(Nc2cc(C(C)=O)ccc2C)ncc1C(F)(F)F` [Compound I-97, N-(2-((2-((5-acetyl-2-methylphenyl)amino)-5-(trifluoromethyl)pyrimidin-4-yl)amino)phenyl)prop-1-ene-2-sulfonamide], the “ERK1 Mass Mod (%)” value is “G (proived a mass modification ≦30%)”.
The result for `C=CC(=O)Nc1cc(C)ccc1Nc1nc(Nc2cc(OC)nc(N3CCN(C(C)=O)CC3)c2)ncc1C(F)(F)F` [Compound I-93, N-(2-((2-((2-(4-Acetylpiperazin-1-yl)-6-methoxypyridin-4-yl)amino)-5-(trifluoromethyl)pyrimidin-4-yl)amino)-5-methylphenyl)acrylamide] reads “E (key: E: provided a mass modification of ≧70%; F: provided a mass modification of 31-69%; G: proived a mass modification ≦30%)”; that for `C=CC(=O)Nc1cc(C)ccc1Nc1nc(Nc2cc(OC)nc(N(C)CCOC)c2)ncc1C(F)(F)F` [Compound I-336, N-(2-((2-((2-methoxy-6-((2-methoxyethyl)(methyl)amino)pyridin-4-yl)amino)-5-(trifluoromethyl)pyrimidin-4-yl)amino)-5-methylphenyl)acrylamide], “E (provided a mass modification of ≧70%)”.
